Tests used:
[1] = target: Stress-70 protein, mitochondrial (HSPA9) (Homo sapiens, UniProt P38646); experiment: TMT LC-MSMS of 11-labelled proteins; format: cell-based
[2] = target: T1, prenylcysteine oxidase 1 (PCYOX1) (Homo sapiens, UniProt Q9UHG3); experiment: TMT LC-MSMS of 11-labelled proteins; format: cell-based
T1 sequence (Q9UHG3 28-505): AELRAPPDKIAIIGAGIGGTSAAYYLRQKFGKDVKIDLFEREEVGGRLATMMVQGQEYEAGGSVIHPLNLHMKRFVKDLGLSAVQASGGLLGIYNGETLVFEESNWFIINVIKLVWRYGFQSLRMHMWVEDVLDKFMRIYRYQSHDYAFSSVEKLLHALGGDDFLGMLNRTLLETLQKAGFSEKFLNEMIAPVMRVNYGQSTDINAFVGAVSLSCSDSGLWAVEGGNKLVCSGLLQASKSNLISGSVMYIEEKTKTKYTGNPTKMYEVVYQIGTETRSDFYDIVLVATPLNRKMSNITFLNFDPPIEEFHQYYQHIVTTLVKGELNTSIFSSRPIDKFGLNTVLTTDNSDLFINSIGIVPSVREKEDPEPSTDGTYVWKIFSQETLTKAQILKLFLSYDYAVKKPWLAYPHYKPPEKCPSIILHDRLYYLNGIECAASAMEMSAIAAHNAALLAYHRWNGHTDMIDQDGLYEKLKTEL

[3] = sheet Merged, SKBR3 cells, 11 0.5 µM 3 h vs DMSO
[4] = sheet Merged, SKBR3 cells, 11 0.5 µM 3 h vs with PU-H71 10 µM

Sequence of Stress-70 protein, mitochondrial (HSPA9) (P38646 47-679): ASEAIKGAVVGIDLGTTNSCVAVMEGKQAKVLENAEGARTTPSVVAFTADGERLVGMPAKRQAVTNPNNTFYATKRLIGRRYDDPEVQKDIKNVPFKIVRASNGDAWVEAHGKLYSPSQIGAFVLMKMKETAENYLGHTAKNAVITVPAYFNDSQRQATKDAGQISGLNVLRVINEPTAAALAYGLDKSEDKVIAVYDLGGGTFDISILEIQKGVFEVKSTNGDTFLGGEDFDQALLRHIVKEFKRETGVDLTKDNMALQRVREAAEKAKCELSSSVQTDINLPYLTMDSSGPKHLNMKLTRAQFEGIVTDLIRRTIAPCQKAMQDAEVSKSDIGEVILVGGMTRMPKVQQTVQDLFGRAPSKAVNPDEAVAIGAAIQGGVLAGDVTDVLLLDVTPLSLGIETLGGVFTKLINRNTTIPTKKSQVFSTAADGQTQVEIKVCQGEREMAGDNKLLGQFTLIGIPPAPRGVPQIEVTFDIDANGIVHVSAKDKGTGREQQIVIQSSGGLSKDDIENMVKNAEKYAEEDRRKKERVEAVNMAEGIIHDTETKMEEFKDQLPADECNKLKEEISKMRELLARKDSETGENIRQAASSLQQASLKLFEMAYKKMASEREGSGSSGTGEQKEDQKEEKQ

- Abundance Ratio: (11) / (11 with PU-H71) ([1]; Exp3, HSPA9): 0.949
- Abundance Ratio: (11) / (DMSO) ([1]; Exp3, HSPA9): 2.217
- Abundances (Grouped): 11 ([1]; Exp3, HSPA9): 31.7
- Abundances (Grouped): 11 with PU-H71 ([1]; Exp3, HSPA9, with PU-H71): 33.4
- Abundance Ratio: (11) / (DMSO) [1, 3]: 2.217
- Abundance Ratio: (11) / (11 with PU-H71) [1, 4]: 0.949
- Abundance Ratio: (11) / (11 with PU-H71) ([2]; Exp3, PCYOX1): 0.713
- Abundance Ratio: (11) / (DMSO) ([2]; Exp3, PCYOX1): 1.251
- Abundances (Grouped): 11 ([2]; Exp3, PCYOX1): 54.9
- Abundances (Grouped): 11 with PU-H71 ([2]; Exp3, PCYOX1, with PU-H71): 77
- Abundance Ratio: (11) / (DMSO) ([2]; sheet Exp1, SKBR3 cells, 11 0.5 µM 3 h vs DMSO): 1.831
- Abundance Ratio: (11) / (11 with PU-H71) ([2]; sheet Exp1, SKBR3 cells, 11 0.5 µM 3 h vs with PU-H71 10 µM): 0.86
- Abundance Ratio: (11) / (DMSO) [2, 3]: 1.513
- Abundance Ratio: (11) / (11 with PU-H71) [2, 4]: 0.783
Compound: CC(=O)Oc1ccc2c(c1)Oc1cc(OC(C)=O)ccc1C21OC(=O)c2cc(C(=O)NCCOCCOCCNC(=O)CCCC(=O)N(CC#N)S(=O)(=O)c3ccc(C(=O)NCCCn4c(Sc5cc6c(cc5I)OCO6)nc5c(N)ncnc54)cc3)ccc21 [compound 11]

Reference: publication PMC5951806, “Rapid labelling and covalent inhibition of intracellular native proteins using ligand-directed N-acyl-N-alkyl sulfonamide” (Nature Communications, 2018)
